Tested on: 156681-154-R-J1 tumor spheroid viability
Test: Anticancer human tumor 156681-154-R-J1 patient-derived melanoma cell line growth inhibition
Conditions: spheroids with HUVEC and MSC; for IC50: curve of first compound; for viability, T/C: stronger effect = lower value
How it was run: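 Single agents and combinations were tested on spheroids built from tumor cells plus HUVEC and hMSC, at half-log dilutions starting at or near clinical Cmax, else 10 microM; final DMSO 0.25% (v/v).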
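Further: spheroids exposed to compounds for 7 days before readout.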
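Wherever viability, T/C is given: percent of vehicle control viability where 100% = DMSO-treated spheroids.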

Compound: Cn1ncnc1[C@H]1c2n[nH]c(=O)c3cc(F)cc(c23)N[C@@H]1c1ccc(F)cc1 + Cn1nnc2c(C(N)=O)ncn2c1=O
- IC50 (second compound 1 µM): 971 nM
- IC50 (second compound 3.16 µM): 591 nM
- IC50 (second compound 10 µM): 270 nM
- IC50 (second compound 31.6 µM): < 9.49 nM
- IC50 (second compound 100 µM): < 9.49 nM
- viability, T/C (second compound 1 µM, first compound 0.00949 µM): 78.4%
- viability, T/C (second compound 1 µM, first compound 0.03 µM): 83.7%
- viability, T/C (second compound 1 µM, first compound 0.0949 µM): 75%
- viability, T/C (second compound 1 µM, first compound 0.3 µM): 72.7%
- viability, T/C (second compound 1 µM, first compound 0.949 µM): 50.5%
- viability, T/C (second compound 1 µM, first compound 3 µM): 16.6%
- viability, T/C (second compound 3.16 µM, first compound 0.00949 µM): 69%
- viability, T/C (second compound 3.16 µM, first compound 0.03 µM): 74.4%
- viability, T/C (second compound 3.16 µM, first compound 0.0949 µM): 71%
- viability, T/C (second compound 3.16 µM, first compound 0.3 µM): 64.1%
- viability, T/C (second compound 3.16 µM, first compound 0.949 µM): 40%
- viability, T/C (second compound 3.16 µM, first compound 3 µM): 15.2%
- viability, T/C (second compound 10 µM, first compound 0.00949 µM): 81.1%
- viability, T/C (second compound 10 µM, first compound 0.03 µM): 88.4%
- viability, T/C (second compound 10 µM, first compound 0.0949 µM): 54.6%
- viability, T/C (second compound 10 µM, first compound 0.3 µM): 50%
- viability, T/C (second compound 10 µM, first compound 0.949 µM): 33.7%
- viability, T/C (second compound 10 µM, first compound 3 µM): 13.6%
- viability, T/C (second compound 31.6 µM, first compound 0.00949 µM): 44.4%
- viability, T/C (second compound 31.6 µM, first compound 0.03 µM): 35.4%
- viability, T/C (second compound 31.6 µM, first compound 0.0949 µM): 34.9%
- viability, T/C (second compound 31.6 µM, first compound 0.3 µM): 29.6%
- viability, T/C (second compound 31.6 µM, first compound 0.949 µM): 17%
- viability, T/C (second compound 31.6 µM, first compound 3 µM): 18%
- viability, T/C (second compound 100 µM, first compound 0.00949 µM): 16.3%
- viability, T/C (second compound 100 µM, first compound 0.03 µM): 14.4%
- viability, T/C (second compound 100 µM, first compound 0.0949 µM): 12.2%
- viability, T/C (second compound 100 µM, first compound 0.3 µM): 11.3%
- viability, T/C (second compound 100 µM, first compound 0.949 µM): 14%
- viability, T/C (second compound 100 µM, first compound 3 µM): 14.4%

Compound: [2H]c1nc(C)nc([2H])c1-c1cc(NC[C@@H](C)c2cccc3c(C(=O)NC)ccnc23)ncn1 + CC[C@@]1(O)C(=O)OCc2c1cc1n(c2=O)Cc2cc3c(CN(C)C)c(O)ccc3nc2-1
- IC50 (second compound 0.003 µM): > 10000 nM
- IC50 (second compound 0.00949 µM): > 10000 nM
- IC50 (second compound 0.03 µM): > 10000 nM
- IC50 (second compound 0.0949 µM): < 31.6 nM
- IC50 (second compound 0.3 µM): < 31.6 nM
- viability, T/C (second compound 0.003 µM, first compound 0.0316 µM): 100%
- viability, T/C (second compound 0.003 µM, first compound 0.1 µM): 132%
- viability, T/C (second compound 0.003 µM, first compound 0.316 µM): 112%
- viability, T/C (second compound 0.003 µM, first compound 1 µM): 92.2%
- viability, T/C (second compound 0.003 µM, first compound 3.16 µM): 92.3%
- viability, T/C (second compound 0.003 µM, first compound 10 µM): 78%
- viability, T/C (second compound 0.00949 µM, first compound 0.0316 µM): 97.6%
- viability, T/C (second compound 0.00949 µM, first compound 0.1 µM): 81.4%
- viability, T/C (second compound 0.00949 µM, first compound 0.316 µM): 103%
- viability, T/C (second compound 0.00949 µM, first compound 1 µM): 95.8%
- viability, T/C (second compound 0.00949 µM, first compound 3.16 µM): 97.2%
- viability, T/C (second compound 0.00949 µM, first compound 10 µM): 78.2%
- viability, T/C (second compound 0.03 µM, first compound 0.0316 µM): 69.3%
- viability, T/C (second compound 0.03 µM, first compound 0.1 µM): 72.3%
- viability, T/C (second compound 0.03 µM, first compound 0.316 µM): 66.6%
- viability, T/C (second compound 0.03 µM, first compound 1 µM): 65.6%
- viability, T/C (second compound 0.03 µM, first compound 3.16 µM): 64.7%
- viability, T/C (second compound 0.03 µM, first compound 10 µM): 76%
- viability, T/C (second compound 0.0949 µM, first compound 0.0316 µM): 28.3%
- viability, T/C (second compound 0.0949 µM, first compound 0.1 µM): 26.2%
- viability, T/C (second compound 0.0949 µM, first compound 0.316 µM): 27.4%
- viability, T/C (second compound 0.0949 µM, first compound 1 µM): 25%
- viability, T/C (second compound 0.0949 µM, first compound 3.16 µM): 32.4%
- viability, T/C (second compound 0.0949 µM, first compound 10 µM): 29.9%
- viability, T/C (second compound 0.3 µM, first compound 0.0316 µM): 37.1%
- viability, T/C (second compound 0.3 µM, first compound 0.1 µM): 32.6%
- viability, T/C (second compound 0.3 µM, first compound 0.316 µM): 31.5%
- viability, T/C (second compound 0.3 µM, first compound 1 µM): 40.6%
- viability, T/C (second compound 0.3 µM, first compound 3.16 µM): 33.2%
- viability, T/C (second compound 0.3 µM, first compound 10 µM): 36.4%
